Laboratory results taken from publication doi:10.1101/662718v1 (biorxiv, 2019).

What was measured:
ecATCase [1] = molecular target: T1, ecATCase (Escherichia coli, UniProt P0A786); assay: ITC; format: binding; conditions: 50 mM Tris-acetate pH 8.3, no Asp
T1 sequence (P0A786 2-311): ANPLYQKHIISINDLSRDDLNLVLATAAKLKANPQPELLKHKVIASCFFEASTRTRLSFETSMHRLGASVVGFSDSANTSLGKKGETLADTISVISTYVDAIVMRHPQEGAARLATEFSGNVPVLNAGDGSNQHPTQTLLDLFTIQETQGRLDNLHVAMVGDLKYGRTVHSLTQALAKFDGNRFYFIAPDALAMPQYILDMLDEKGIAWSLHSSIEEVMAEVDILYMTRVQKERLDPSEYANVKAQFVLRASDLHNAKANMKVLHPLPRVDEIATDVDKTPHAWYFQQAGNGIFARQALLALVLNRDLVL

ecATCase [2] = molecular target: T1, ecATCase; assay: colorimetric ATCase activity assay, dose-response fit; format: biochemical
huATCase = molecular target: T2, huATCase (Homo sapiens, UniProt P27708); assay: as above; format: biochemical
T2 sequence (P27708 1915-2225 limits assumed): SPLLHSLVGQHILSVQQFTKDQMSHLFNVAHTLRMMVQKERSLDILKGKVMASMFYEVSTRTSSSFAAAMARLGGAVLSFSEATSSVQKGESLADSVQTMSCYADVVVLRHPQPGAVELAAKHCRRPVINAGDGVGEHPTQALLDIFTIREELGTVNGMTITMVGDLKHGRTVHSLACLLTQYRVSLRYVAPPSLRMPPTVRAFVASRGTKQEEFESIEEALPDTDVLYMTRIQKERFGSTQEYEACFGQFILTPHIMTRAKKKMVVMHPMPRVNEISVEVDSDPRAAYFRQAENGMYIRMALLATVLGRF

Row | KD (ecATCase [1]) | IC50 (ecATCase [2]) | IC50 (huATCase) | Compound
1 | all ATCase variants were able to bind CP | – | – | NC(=O)OP(=O)(O)O [CP]
2 | – | 1.8 ± 0.4 µM | 4.1 ± 1.9 µM | O=c1[nH]c2ccc(Nc3nc4nonc4nc3N/N=C/c3ccccc3OCc3ccc(Cl)cc3Cl)cc2[nH]1 [YD19]
3 | – | 5 ± 1.4 µM | 15.4 ± 1.6 µM | CC(C(=O)Oc1ccc(C2C3=C(Nc4[nH]c(=O)n(C)c(=O)c42)c2ccccc2C3=O)cc1)N1C(=O)c2ccccc2C1=O (centres unmarked) [YD21]
